Holding throughout (assay type): functional, organism-based
For test [1], the system named is Zymoseptoria tritici. The test can be described thus: Antifungal activity against azoxystrobin-sensitive Zymoseptoria tritici T0464 carrying cytochrome-b G143 allele assessed as fungal growth inhibition after 6 days at 20 degC by microplate without alamar blue assay. To be noted: T0464, 144 h.
The subject of test [2] is Zymoseptoria tritici. The test can be described thus: Antifungal activity against azoxystrobin-sensitive Zymoseptoria tritici T021 carrying cytochrome-b G143 allele assessed as inhibition of spore germination after 2 days at 18 degC by spotting on PDA medium assay. To be noted: T021, 48 h.
Test [3] relates to Zymoseptoria tritici. The experiment in a line: Antifungal activity against azoxystrobin-sensitive Zymoseptoria tritici T0471 carrying cytochrome-b G143 allele assessed as fungal colony perpendicular diameter changes after 10 days at 18 degC by spotting on PDA medium assay. The settings on record: T0471, 240 h.
Test [4] has as its system Zymoseptoria tritici. The experiment in a line: Antifungal activity against azoxystrobin-sensitive Zymoseptoria tritici T021 carrying cytochrome-b G143 allele assessed as fungal colony perpendicular diameter changes after 10 days at 18 degC by spotting on PDA medium assay. The settings on record: T021, 240 h.
The subject of test [5] is Zymoseptoria tritici. The test can be described thus: Antifungal activity against azoxystrobin-sensitive Zymoseptoria tritici T0473 carrying cytochrome-b G143 allele assessed as inhibition of spore germination after 2 days at 18 degC by spotting on PDA medium assay. The settings on record: T0473, 48 h.
Test [6] concerns Zymoseptoria tritici. The test can be described thus: Antifungal activity against azoxystrobin-sensitive Zymoseptoria tritici T0460 carrying cytochrome-b G143 allele assessed as inhibition of spore germination after 2 days at 18 degC by spotting on PDA medium assay. To be noted: T0460, 48 h.
Test [7] has as its system Zymoseptoria tritici. The experiment in a line: Antifungal activity against azoxystrobin-sensitive Zymoseptoria tritici T0278 carrying cytochrome-b G143 allele assessed as inhibition of spore germination after 2 days at 18 degC by spotting on PDA medium assay. To be noted: T0278, 48 h.
In test [8] the test system is Zymoseptoria tritici. The test can be described thus: Antifungal activity against azoxystrobin-sensitive Zymoseptoria tritici T0471 carrying cytochrome-b G143 allele assessed as inhibition of spore germination after 2 days at 18 degC by spotting on PDA medium assay. The settings on record: T0471, 48 h.
In test [9] the test system is Zymoseptoria tritici. The test can be described thus: Antifungal activity against azoxystrobin-sensitive Zymoseptoria tritici T0365 carrying cytochrome-b G143 allele assessed as fungal growth inhibition after 6 days at 20 degC by microplate without alamar blue assay. To be noted: T0365, 144 h.
In test [10] the test system is Zymoseptoria tritici. The test can be described thus: Antifungal activity against azoxystrobin-sensitive Zymoseptoria tritici IPO323 carrying cytochrome-b G143 allele assessed as fungal colony perpendicular diameter changes after 10 days at 18 degC by spotting on PDA medium assay. The settings on record: IPO323, 240 h.
For test [11], the system named is Zymoseptoria tritici. The test can be described thus: Antifungal activity against azoxystrobin-sensitive Zymoseptoria tritici T0460 carrying cytochrome-b G143 allele assessed as fungal colony perpendicular diameter changes after 10 days at 18 degC by spotting on PDA medium assay. To be noted: T0460, 240 h.
The subject of test [12] is Zymoseptoria tritici. The experiment in a line: Antifungal activity against azoxystrobin-sensitive Zymoseptoria tritici T0473 carrying cytochrome-b G143 allele assessed as fungal colony perpendicular diameter changes after 10 days at 18 degC by spotting on PDA medium assay. To be noted: T0473, 240 h.

Structures are written as SMILES. Converted amounts (≈) assume the structure as drawn.

As to `CO/C=C(/C(=O)OC)c1ccccc1Oc1cc(Oc2ccccc2C#N)ncn1` [AZOXYSTROBIN], the IC50 in [1] was less than 0.01 µg/mL; in test [2], 0.21 µg/mL (≈ 0.521 µM); in test [3] it was 0.1 µg/mL (≈ 0.248 µM); in [4], 0.11 µg/mL (≈ 0.273 µM); in test [5], 0.05 µg/mL (≈ 0.124 µM); in [6], 0.13 µg/mL (≈ 0.322 µM). Moreover, the half-inhibitory concentration (IC50) in test [7] is 0.94 µg/mL (≈ 2.33 µM); in test [8] it was 0.08 µg/mL (≈ 0.198 µM); in test [9], 0.16 µg/mL (≈ 0.397 µM); in test [10], 0.03 µg/mL (≈ 0.0744 µM); in [11] it was 0.09 µg/mL (≈ 0.223 µM); in test [12] it was 0.13 µg/mL (≈ 0.322 µM).

The term IC50 denotes the concentration at which inhibition is half-maximal.

The values are drawn from ChEMBL document CHEMBL3046287, “Azoxystrobin resistance of French Mycosphaerella graminicola strains assessed by four in vitro bioassays and by screening of G143A substitution” (Crop Prot, 2010).
